Measurements reported in patent US20240132498A1, “CRYSTALLINE FORMS OF 5-(3,4-DIFLUOROBENZYL)-8-((1R,4R)-4-METHYLCYCLOHEXYL)-6,9-DIOXO-2,5,8-TRIAZASPIRO[3.5]NONANE-2-CARBALDEHYDE” (Cytokinetics, Incorporated, priority 2022, published 2024).

Target: T1, CYP1A2 (Homo sapiens, UniProt P05177)
T1 construct: from tissue; host or cells: pooled human liver microsomes
T1 sequence (P05177 1-516): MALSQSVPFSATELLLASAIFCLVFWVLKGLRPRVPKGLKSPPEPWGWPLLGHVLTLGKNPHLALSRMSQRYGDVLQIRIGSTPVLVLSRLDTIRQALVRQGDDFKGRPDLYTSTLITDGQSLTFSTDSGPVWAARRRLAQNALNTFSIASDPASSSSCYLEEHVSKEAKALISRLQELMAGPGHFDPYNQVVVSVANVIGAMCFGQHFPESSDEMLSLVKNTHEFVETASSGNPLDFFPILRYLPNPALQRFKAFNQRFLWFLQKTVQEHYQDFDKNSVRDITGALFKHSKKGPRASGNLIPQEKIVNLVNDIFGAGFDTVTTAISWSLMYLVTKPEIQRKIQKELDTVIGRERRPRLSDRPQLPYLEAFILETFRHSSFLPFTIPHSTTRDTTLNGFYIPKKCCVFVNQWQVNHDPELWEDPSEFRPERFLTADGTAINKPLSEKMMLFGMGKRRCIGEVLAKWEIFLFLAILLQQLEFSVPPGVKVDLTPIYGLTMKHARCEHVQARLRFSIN
Assay: Time-dependent inhibition of CYP450 enzymes in human liver microsomes: CYP1A2
Assay type: in vitro ADME
Method: An assessment of the time-dependent Inhibitory Potential of the test compounds against Principal Human Cytochrome P450 Isozymes using Human Liver Microsomes was also carried out using standard methods (Grimm et al, Drug Metab. Dispos., Jul; 37(7):1355-70. doi: 10.1124/dmd.109.026716, 2009). Pooled human microsomes and selective CYP probe substrates were used for in vitro assessment of test compounds at 25 and 50 μM as time-dependent inhibitors of […] human hepatic cytochrome P450 isozymes (CYP1A2, 2B6, 2C9, 2C19, 2D6, and 3A4). LC-MS/MS was used to quantify metabolite formation. The inhibition of each P450 enzyme in human liver microsomes was measured as the percentage decrease in the activity of marker metabolite formation as measured by LC-MS/MS compared to non-inhibited controls (=100% activity) at time zero and after 30 minutes incubation. The occurrence of any time dependent inhibition was then expressed as the fold change in enzyme activity at time zero relative to the activity after 30 minutes incubation. The time dependent inhibition for the compound 5-(3,4-difluorobenzyl)-8-((1 r,4r)-4-methylcyclohexyl)-6,9-dioxo-2,5, 8-triazaspiro [3.5]nonane-2-carbaldehyde (Compound 1) against CYP1A2, […], CYP2C8, CYP2C9, CYP2C19, CYP2D6, CYP3A4-M and CYP3A4-T is shown in Table B-12.

Structure (SMILES): C[C@H]1CC[C@H](N2CC(=O)N(Cc3ccc(F)c(F)c3)C3(CN(C=O)C3)C2=O)CC1 [Compound 1, 5-(3,4-difluorobenzyl)-8-((1r,4r)-4-methylcyclohexyl)-6,9-dioxo-2,5,8-triazaspiro[3.5]nonane-2-carbaldehyde]
- (% Activity NADPH T0)/(% Activity NADPH T30) (CYP1A2, 25 μM): 1.1
- (% Activity NADPH T0)/(% Activity NADPH T30) (CYP1A2, 50 μM): 1.0
- activity at 30 min, 25 µM (human, pooled human liver microsomes, CYP1A2, 25 μM, 30 minutes incubation, read-out: % Activity NADPH T30): 90%
- activity at 0 min, 25 µM (human, pooled human liver microsomes, CYP1A2, 25 μM, time zero, read-out: % Activity NADPH T0): 95%
- activity at 30 min, 50 µM (human, pooled human liver microsomes, CYP1A2, 50 μM, 30 minutes incubation, read-out: % Activity NADPH T30): 85%
- activity at 0 min, 50 µM (human, pooled human liver microsomes, CYP1A2, 50 μM, time zero, read-out: % Activity NADPH T0): 86%
